Source: PubChem BioAssay (NCI)
Where “and” joins values, the source holds several entries; their conditions need not be identical. Equal entries are not always repeated.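 Results reflect a 48-hour exposure of cells in 96-well plates to compound at five concentrations. GI50 = concentration required for 50% inhibition of growth. TGI is the concentration that stops growth completely.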 Where a SMILES comes first, the peptide text is derived from it. [ ]: non-standard residue; d: D form. The star is where a group is joined. ξ: configuration not given here. ξPhe(4-NO2) = NC(Cc1ccc([N+](=O)[O-])cc1)C(=O)O; Boc = CC(C)(C)OC(=O)*

Legend:
Experiment in all cases: NCI anticancer screen, dose series, 48 h
[1] = test system: UO-31 renal
[2] = test system: MCF7 breast
[3] = test system: NCI-H460 lung
[4] = test system: OVCAR-5 ovarian
[5] = test system: U251 CNS
[6] = test system: K-562 leukemia
[7] = test system: PC-3 prostate
[8] = test system: A498 renal
[9] = test system: SNB-75 CNS
[10] = test system: MOLT-4 leukemia
[11] = test system: NCI-H23 lung
[12] = test system: MDA-MB-435
[13] = test system: SNB-19 CNS

Row | Compound | TGI [1] | TGI [2] | TGI [3] | TGI [4] | TGI [5] | TGI [6] | TGI [7] | TGI [8] | TGI [9] | TGI [10] | TGI [11] | TGI [12] | TGI [13] | GI50 [3] | GI50 [4] | GI50 [8] | GI50 [9] | GI50 [11] | GI50 [13]
1 | CN(/N=C/c1ccccc1C(=O)O)C1=NCCCCN1 | > 100 µM | > 100 µM | > 100 µM | > 100 µM | > 100 µM | > 100 µM | > 100 µM | > 100 µM | > 100 µM | > 100 µM | > 100 µM | > 100 µM | > 100 µM |  |  |  |  |  | 
2 | CCOC(OCC)[C@H](N)[C@@H](O)[C@@H](O)[C@H]1COC(C)(C)O1 | > 100 µM | > 100 µM |  | > 100 µM | > 100 µM | > 100 µM | > 100 µM | > 100 µM | > 100 µM | > 100 µM | > 100 µM | > 100 µM | > 100 µM |  |  |  |  |  | 
3 | CCCCSC1=N/C(=C\c2ccc(N(C)C)cc2)C(Cl)=N1 | > 100 µM | > 100 µM | > 100 µM | > 100 µM | > 100 µM | > 100 µM | > 100 µM | > 100 µM | > 100 µM | > 100 µM | > 100 µM | > 100 µM | > 100 µM |  |  |  |  |  | 
4 | COc1ccc2c(c1)OC1c3ccccc3OCC21 (stereo not given) | > 100 µM | > 100 µM | > 100 µM | > 100 µM | > 100 µM | > 100 µM | > 100 µM | > 100 µM | > 100 µM | 81.9 µM | > 100 µM | > 100 µM | > 100 µM |  |  |  |  |  | 
5 | COc1ccc(-c2nc(SC)n(C3OC(COC(C)=O)C(OC(C)=O)C(OC(C)=O)C3OC(C)=O)c(=O)c2C#N)cc1 (stereo not given) | 77.6 µM and > 100 µM | > 100 µM | > 100 µM | > 100 µM | > 100 µM | > 100 µM | > 100 µM | 44.5 µM and > 100 µM | 57.9 µM and > 100 µM | > 100 µM | > 100 µM | > 100 µM | > 100 µM | 80.4 µM and 14.4 µM | > 100 µM | 8.43 µM and 44.1 µM | 22.8 µM and 65.6 µM | 35.7 µM and > 100 µM | 26.3 µM and > 100 µM
6 | CCNC(=O)CNC(=O)C(Cc1ccc([N+](=O)[O-])cc1)NC(=O)OC(C)(C)C (stereo not given) (Boc-[ξPhe(4-NO2)]-Gly-NHEt) | > 100 µM | > 100 µM | > 100 µM | > 100 µM | > 100 µM | > 100 µM | > 100 µM | > 100 µM | > 100 µM | > 100 µM | > 100 µM | > 100 µM | > 100 µM |  |  |  |  |  | 
7 | COC(=O)[C@]1(Cc2ccc3ccccc3c2)CCCCCCN1C(=O)c1ccccc1 | > 39.9 µM | > 49.1 µM | > 50.2 µM | > 65 µM | > 46.1 µM | > 100 µM | > 45.7 µM | > 51.5 µM | 54.7 µM | > 47.7 µM | > 45.9 µM | > 53.1 µM | > 81.8 µM |  |  |  |  |  | 
8 | FC(F)(F)C1(c2ccccc2)SCc2nc3ccccc3n21 (stereo not given) | > 100 µM | > 100 µM | > 100 µM | > 100 µM | > 100 µM | > 100 µM | > 100 µM | > 100 µM | > 100 µM | > 100 µM | > 100 µM | > 100 µM | > 100 µM |  |  |  |  |  | 
9 | CCN(CCCl)c1cc(CN(C)C)cc(NC(=O)c2ccc(C(=O)Nc3ccccc3)cc2)c1 | 4.4 µM | 2.79 µM | 1.27 µM | 4.5 µM |  | 8.31 µM | 1.56 µM | 1.8 µM | 4.13 µM | 1.78 µM | 1.27 µM | 0.613 µM | 8.85 µM |  |  |  |  |  | 
10 | CN(C)c1c(C2CC(O)C(CO)O2)c(=O)c1=O (stereo not given) | > 100 µM | > 100 µM | > 100 µM | > 100 µM | > 100 µM | > 100 µM | > 100 µM | > 100 µM | > 100 µM | > 100 µM |  | > 100 µM | > 100 µM |  |  |  |  |  | 
11 | O=C(NNC(=O)c1c(Cl)c(Cl)c(Cl)c(Cl)c1-c1nc2ccccc2[nH]1)c1ccc(Cl)cc1 | > 100 µM | > 100 µM |  | > 100 µM |  | > 100 µM | > 100 µM | > 100 µM | > 100 µM | > 100 µM | > 100 µM | 69.8 µM | > 100 µM |  |  |  |  |  | 
12 | O=c1oc2ccccc2n1CCCn1c(=O)oc2ccccc21 |  | > 100 µM | > 100 µM | > 100 µM | > 100 µM | > 100 µM | > 100 µM | > 100 µM | > 100 µM | > 100 µM | > 100 µM | > 100 µM | > 100 µM |  |  |  |  |  | 
13 | COc1ccc(/C=C2/SC(c3c(O)ccc4ccccc34)N(NC(=O)CCCCCCCCC(=O)NN3C(=O)/C(=C\c4ccc(OC)c(OC)c4)SC3c3c(O)ccc4ccccc34)C2=O)cc1OC (stereo not given) |  | > 100 µM | > 100 µM | > 100 µM | 96.8 µM | 17 µM | > 100 µM | 49.3 µM | > 100 µM | 2.9 µM | > 75 µM | > 100 µM | > 91.7 µM |  |  |  |  |  | 
14 | COc1ccc(C(=O)N(Cc2cccnc2)C(=S)N(Cc2cccnc2)C(=O)c2ccc(OC)cc2)cc1 |  | > 100 µM | > 100 µM | > 100 µM | > 100 µM | > 100 µM | > 100 µM | > 100 µM | 42.9 µM | > 100 µM | > 100 µM | > 100 µM | > 100 µM |  |  |  |  |  | 
